In PMC11219871, “Epigenetic-based differentiation therapy for Acute Myeloid Leukemia” (Nature Communications, 2024):
Where “and” joins values, the source holds several entries; their conditions need not be identical. Equal values may be shown once. Read-outs that look alike come from different tables or passages of the source. One block for each molecule: values may come before it.

How the values were obtained:
HDAC1 = HDAC1 (Homo sapiens, UniProt Q13547); assay: HDAC enzymatic assay, fluorescence-labeled substrate; assay type: biochemical; conditions: read-out: HDAC1 IC50
Sequence of HDAC1 (Q13547 whole entry): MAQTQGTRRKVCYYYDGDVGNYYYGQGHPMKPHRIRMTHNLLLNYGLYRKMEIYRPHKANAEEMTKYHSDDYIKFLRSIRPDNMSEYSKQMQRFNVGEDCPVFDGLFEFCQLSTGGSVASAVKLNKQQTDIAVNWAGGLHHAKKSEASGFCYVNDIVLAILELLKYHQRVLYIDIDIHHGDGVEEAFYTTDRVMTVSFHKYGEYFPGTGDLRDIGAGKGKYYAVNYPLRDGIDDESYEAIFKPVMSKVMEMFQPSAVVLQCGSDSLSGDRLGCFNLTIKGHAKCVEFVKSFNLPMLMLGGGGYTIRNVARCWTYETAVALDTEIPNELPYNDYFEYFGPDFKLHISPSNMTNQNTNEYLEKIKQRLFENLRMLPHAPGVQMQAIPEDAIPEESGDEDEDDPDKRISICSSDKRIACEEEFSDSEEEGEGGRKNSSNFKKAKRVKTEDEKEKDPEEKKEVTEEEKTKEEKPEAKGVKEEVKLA

HL-60 [1] = assay: Cell proliferation assay: GI50; assay type: cell-based, human
Experimental: (§1) Cell proliferation was analyzed using the CellTiter 96 Aqueous One Solution Cell Proliferation Assay (Promega, Madison, WI). This is a colorimetric method for determining the number of viable cells in proliferation. For the assay, suspension cells were cultured in triplicate at a density of 1 × 10^6 cells/mL in 96-well plates (100.000 cells/well, 100 µL/well), using only the 60 inner wells to avoid any border effects. […] Then, the cells were incubated with 100 μL/well of medium and 20 μL/well of CellTiter 96 Aqueous One Solution reagent for 1–3 h. […] The background absorbance was measured in wells with only cell line medium and solution reagent. First, the average of the absorbance from the control wells was subtracted from all other absorbance values. Data were calculated as the percentage of total absorbance of treated cells/absorbance of non-treated cells. The GI50 values of the different compounds were determined using non-linear regression plots made with GraphPad Prism v5 software.

HDAC6 = target: T1, HDAC6 (Homo sapiens, UniProt Q9UBN7); assay: HDAC enzymatic assay, fluorescence-labeled substrate; assay type: biochemical; conditions: read-out: HDAC6 IC50
T1 sequence (Q9UBN7 1-1215): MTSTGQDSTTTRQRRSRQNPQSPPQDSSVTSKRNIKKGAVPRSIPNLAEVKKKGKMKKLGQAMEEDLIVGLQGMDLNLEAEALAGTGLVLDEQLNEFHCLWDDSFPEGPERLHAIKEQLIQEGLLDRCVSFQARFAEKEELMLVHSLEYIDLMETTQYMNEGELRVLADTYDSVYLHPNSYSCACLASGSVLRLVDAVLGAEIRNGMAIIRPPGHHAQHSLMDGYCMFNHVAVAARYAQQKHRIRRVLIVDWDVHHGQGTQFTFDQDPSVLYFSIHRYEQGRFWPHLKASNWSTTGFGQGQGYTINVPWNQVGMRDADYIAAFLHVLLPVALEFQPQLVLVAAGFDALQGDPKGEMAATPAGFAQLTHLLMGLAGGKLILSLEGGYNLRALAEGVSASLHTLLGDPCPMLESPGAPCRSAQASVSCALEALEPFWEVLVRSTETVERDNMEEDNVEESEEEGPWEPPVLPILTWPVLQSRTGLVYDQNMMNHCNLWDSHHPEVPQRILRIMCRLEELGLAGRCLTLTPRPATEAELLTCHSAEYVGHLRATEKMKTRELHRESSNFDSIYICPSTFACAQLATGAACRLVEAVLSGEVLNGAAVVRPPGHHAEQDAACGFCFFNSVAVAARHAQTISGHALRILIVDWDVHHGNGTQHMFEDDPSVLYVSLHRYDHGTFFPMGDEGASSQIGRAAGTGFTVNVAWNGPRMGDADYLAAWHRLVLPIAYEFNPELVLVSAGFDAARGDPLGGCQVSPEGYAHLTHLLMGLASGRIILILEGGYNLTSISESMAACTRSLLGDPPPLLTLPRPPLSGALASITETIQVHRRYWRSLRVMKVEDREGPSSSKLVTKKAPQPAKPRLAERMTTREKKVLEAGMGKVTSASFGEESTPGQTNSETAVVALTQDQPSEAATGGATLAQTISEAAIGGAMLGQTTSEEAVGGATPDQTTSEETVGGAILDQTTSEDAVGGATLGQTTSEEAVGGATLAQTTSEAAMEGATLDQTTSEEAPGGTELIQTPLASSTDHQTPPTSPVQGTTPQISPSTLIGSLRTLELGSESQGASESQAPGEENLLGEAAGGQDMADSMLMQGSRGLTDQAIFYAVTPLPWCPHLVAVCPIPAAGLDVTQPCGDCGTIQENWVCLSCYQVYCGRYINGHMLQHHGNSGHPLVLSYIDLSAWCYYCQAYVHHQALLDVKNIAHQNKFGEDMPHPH

HL-60 [2] = assay: Differentiation-apoptosis assay, CD11b / annexin-V / Sytox Green / myeloid markers flow cytometry; assay type: cell-based, human; set-up: CD11b levels: unit not given here
Experimental: Next, the cells were washed twice with phosphate-buffered saline (PBS) and resuspended in 1X Binding Buffer at a concentration of 1 × 10^6 cells/mL. […] Finally, after the addition of 400 µL of 1X Binding Buffer to each tube, samples were collected on a BD FACSCanto flow cytometer (Becton Dickinson, San Jose, CA, USA) and analyzed using FlowJo software.
Then, 1 million cells (volume of 250 µL) were added and incubated for 30 min at room temperature in darkness. After 10 min incubation at room temperature with 2 mL of FACSLysing 1X, cells were centrifuged at 540 g for 5 min and washed twice with FACSBuffer. Finally, after centrifugation at 540 g for 5 min cells were resuspended in FACSBuffer.

ML-2 [3] = assay: q-RT-PCR of MYC, CDKN2A, CDKN1A, GATA2, TAL1, CEBPA, SPI1; assay type: cell-based, human; conditions: ML-2 treated daily for 48 h; replicates (Fig 6G)
Experimental: (§2) RNA was extracted with TRIzol Reagent (Invitrogen) according to the manufacturer’s instructions. First, cDNA was synthesized from 1 µg of total RNA using the PrimeScript RT reagent Kit (Perfect Real Time) (Cat No RR037A, TaKaRa) following the manufacturer’s instructions. The quality of cDNA was checked by a multiplex PCR that amplifies PBGD, ABL, BCR and β2-MG genes. […] The following program conditions were used for the q-PCR: 50 °C for 2 min, 95 °C for 60 s following by 45 cycles at 95 °C for 15 s and 60 °C for 60 s; melting program, one cycle at 95 °C for 15 s, 40 °C for 60 s, and 95 °C for 15 s. The relative expression of each gene was quantified by the […] method using the gene GUS as an endogenous control. The sequence of primers used can be found in Supplementary Table 10.

HL-60 [4] = assay: as above; assay type: cell-based, human; conditions: HL-60 treated daily for 48 h; replicates (Fig 6F)
Experimental: as §2

MOLM-13 [5] = assay: as above; assay type: cell-based, human; conditions: MOLM-13, daily treatment for 48 h, replicates 1-3
Experimental: as §2

MV4-11 [6] = assay: as above; assay type: cell-based, human; conditions: MV4-11, daily treatment for 48 h, replicates 1-3
Experimental: as §2

ML-2 [7] = assay: Cell proliferation assay: GI50; assay type: cell-based, human
Experimental: as §1

MOLM-13 [8] = assay: Cell proliferation assay: GI50; assay type: cell-based, human
Experimental: as §1

MV4-11 [9] = assay: Cell proliferation assay: GI50; assay type: cell-based, human
Experimental: as §1

MOLM-13 [10] = assay: Differentiation-apoptosis assay, CD11b / annexin-V / Sytox Green / myeloid markers flow cytometry; assay type: cell-based, human; set-up: CD11b levels: unit not given here; conditions: MOLM-13, daily treatment for 48 h, replicates 1-3 (Suppl. Fig. 9A)
Experimental: (§3) Next, the cells were washed twice with phosphate-buffered saline (PBS) and resuspended in 1X Binding Buffer at a concentration of 1 × 10^6 cells/mL. An 8-µL aliquot of APC-CD11b (BD Pharmingen, Franklin Lakes, NJ, USA) and 1 µL of FITC annexin-V (AV) (BD Pharmingen, Franklin Lakes, NJ, USA) antibodies were added and incubated for 15 min at room temperature in the dark. Finally, after the addition of 400 µL of 1X Binding Buffer to each tube, samples were collected on a BD FACSCanto flow cytometer (Becton Dickinson, San Jose, CA, USA) and analyzed using FlowJo software.
(§4) For the rest of experiments, the mix of antibodies (2 µL of BV786-CD13, Cat No, 744748 BD; 1 µL of diluted 1:10 antibody of PB-HLADR, Cat No 307633, Biolegend; 5 µL of APCH7-CD14, Cat No 641394, BD) was added to 10 µL of Brilliant Stain Buffer Plus (Becton Dickinson, San Jose, CA, USA). Then, 1 million cells (volume of 250 µL) were added and incubated for 30 min at room temperature in darkness. After 10 min incubation at room temperature with 2 mL of FACSLysing 1X, cells were centrifuged at 540 g for 5 min and washed twice with FACSBuffer. Finally, after centrifugation at 540 g for 5 min cells were resuspended in FACSBuffer.

MV4-11 [11] = assay: as above; assay type: cell-based, human; set-up: CD11b levels: unit not given here; conditions: MV4-11, daily treatment for 48 h, replicates 1-3 (Suppl. Fig. 9A)
Experimental: as §3, §4

ML-2 [12] = assay: as above; assay type: cell-based, human; set-up: CD11b levels: unit not given here; conditions: ML-2 treated daily for 48 h; replicates (Fig 6E)
Experimental: as §3, §4

[13] = HL-60, daily 25% GI50, 48 h, mean of three

- IC50 (HDAC1): > 20 µM
- GI50 (HL-60 [1]; 48 h, read-out: HL-60 GI50): > 10 µM
- IC50 (HDAC6): > 20 µM
SMILES: COc1cc2c(NCC3CCN(C)CC3)cc(-c3ccc(C)o3)nc2cc1OCCCN1CCCC1 [CM-579]
- Annexin V (%) Replicate 1 (HL-60 [2]; HL-60, daily 25% GI50, 48 h): 0.00%
- Annexin V (%) Replicate 2 (HL-60 [2]; HL-60, daily 25% GI50, 48 h): 0.00%
- Annexin V (%) Replicate 3 (HL-60 [2]; HL-60, daily 25% GI50, 48 h): 0.00%
- CD11b (%) Replicate 1 (HL-60 [2]; HL-60, daily 25% GI50, 48 h): 0.00%
- CD11b (%) Replicate 2 (HL-60 [2]; HL-60, daily 25% GI50, 48 h): 0.00%
- CD11b (%) Replicate 3 (HL-60 [2]; HL-60, daily 25% GI50, 48 h): 0.00%
- Annexin V + (%) (HL-60 [2]; [13]): 0.00%
- CD11b+ (%) (HL-60 [2]; [13]): 0.00%

SMILES: Cc1sc2c(c1C)C(c1ccc(Cl)cc1)=N[C@@H](CC(=O)OC(C)(C)C)c1nnc(C)n1-2 [JQ1, reference compound]
- q-PCR of CEBPA (ML-2 [3]): 0.003145 log10 (2-ΔΔCt) and -0.05186 log10 (2-ΔΔCt) and 0.00217 log10 (2-ΔΔCt)
- q-PCR of GATA2 (ML-2 [3]): -0.7948 log10 (2-ΔΔCt) and -0.4733 log10 (2-ΔΔCt) and -0.5146 log10 (2-ΔΔCt)
- q-PCR of MYC (ML-2 [3]): -1.0744 log10 (2-ΔΔCt) and -1.048 log10 (2-ΔΔCt) and -1.0236 log10 (2-ΔΔCt)
- q-PCR of SPI1 (ML-2 [3]): -0.3978 log10 (2-ΔΔCt) and -0.4936 log10 (2-ΔΔCt) and -0.3253 log10 (2-ΔΔCt)
- q-PCR of TAL1 (ML-2 [3]): -0.9571 log10 (2-ΔΔCt) and -0.8702 log10 (2-ΔΔCt) and -0.7161 log10 (2-ΔΔCt)
- q-PCR of CEBPA (HL-60 [4]): -0.3248 log10 (2-ΔΔCt) and -0.277 log10 (2-ΔΔCt) and -0.3773 log10 (2-ΔΔCt)
- q-PCR of GATA2 (HL-60 [4]): -0.4169 log10 (2-ΔΔCt) and -0.4604 log10 (2-ΔΔCt) and -0.5063 log10 (2-ΔΔCt)
- q-PCR of MYC (HL-60 [4]): -1.0533 log10 (2-ΔΔCt) and -1.072 log10 (2-ΔΔCt) and -1.203 log10 (2-ΔΔCt)
- q-PCR of SPI1 (HL-60 [4]): 0.1686 log10 (2-ΔΔCt) and 0.1558 log10 (2-ΔΔCt) and 0.1908 log10 (2-ΔΔCt)
- q-PCR of TAL1 (HL-60 [4]): 0.3073 log10 (2-ΔΔCt)
- q-PCR of CEBPA, log10 (2-ΔΔCt) (MOLM-13 [5]): -0.258 and -0.1482 and -0.3669
- q-PCR of GATA2, log10 (2-ΔΔCt) (MOLM-13 [5]): -0.2598 and -0.4259 and -0.3898
- q-PCR of MYC, log10 (2-ΔΔCt) (MOLM-13 [5]): -0.7137 and -0.6985 and -0.8216
- q-PCR of SPI1, log10 (2-ΔΔCt) (MOLM-13 [5]): -0.9325 and -0.8224 and -0.9326
- q-PCR of TAL1, log10 (2-ΔΔCt) (MOLM-13 [5]): -0.4726 and -0.5813 and -0.6816
- q-PCR of CEBPA, log10 (2-ΔΔCt) (MV4-11 [6]): 0.0684 and 0.023 and -0.05782
- q-PCR of GATA2, log10 (2-ΔΔCt) (MV4-11 [6]): -0.3858 and -0.3755 and -0.4115
- q-PCR of MYC, log10 (2-ΔΔCt) (MV4-11 [6]): -0.6192 and -0.5693 and -0.4576
- q-PCR of SPI1, log10 (2-ΔΔCt) (MV4-11 [6]): -0.1789 and -0.2041 and -0.25
- q-PCR of TAL1, log10 (2-ΔΔCt) (MV4-11 [6]): -1.126 and -0.6585 and -1.208
- GI50 (ML-2 [7]; ML-2, 48 h): > 10 µM
- GI50 (ML-2 [7]; ML-2, replicates 1-3, µM for the other inhibitors): > 10 µM
- GI50 (HL-60 [1]; HL-60, 48 h, read-out: GI50): > 10 µM
- GI50 (HL-60 [1]; HL-60, replicates 1-3, µM for the other inhibitors, read-out: GI50): > 10 µM
- GI50 (MOLM-13 [8]; MOLM-13, 48 h): > 10 µM
- GI50 (MOLM-13 [8]; MOLM-13, replicates 1-3, µM for the other inhibitors): > 10 µM
- GI50 (MV4-11 [9]; MV4-11, 48 h): > 10 µM
- GI50 (MV4-11 [9]; MV4-11, replicates 1-3, µM for the other inhibitors): > 10 µM
- CD11b levels (MOLM-13 [10]): 22.1 and 20.7 and 18.1
- CD11b levels (MV4-11 [11]): 12.1 and 10.6 and 16.7
- CD11b levels (ML-2 [12]): 12.1 and 9.5 and 15.4
- CD11b levels (HL-60 [2]; HL-60 treated daily for 48 h, replicates (Fig 6D)): 14.4 and 10.4 and 18.9
